Patent US20210068388A1, “A MULTIPURPOSE POTENTIATOR COMPOSITION AND THE METHODS THEREOF” (priority 2017, published 2021)
Where two headings read alike, the source gives them in different places.

Tests used:
[1] = system: African green monkey kidney cells (Vero cells); assay: In-vitro cytotoxicity on Vero cells
Procedure: (§1) In-vitro cytotoxicity of the composition of was carried out on African green monkey kidney cells (Vero cells).

[2] = system: African green monkey kidney cells (Vero cells)
Procedure: as §1

Compound	toxic level [1]	Non-toxic level (%) ([1]; up to total amount of the composition)	Non-toxic level (%) [2]	toxic level [2]
[Cl-].[Na+] [Control-I, Sodium chloride]	0.50%	0.50%		
[Na+].[OH-] [Control-II, Sodium hydroxide]			0.06%	0.06%
